Consider 2 compounds from patent US8399459B2, “1,4 oxazines as BACE1 and/or BACE2 inhibitors” (Hoffmann-La Roche Inc., priority 2011, dated 2013).

Where only a bound is given, the exact number is not on record here.

A word on the efflux ratio: it is a quotient of directional permeabilities that is used to spot active efflux. As a reminder, the IC50 is the concentration at which inhibition is half-maximal.

Holding throughout (format): in vitro ADME
One data set deals with T1, P-gp (human MDR1) (Homo sapiens, UniProt P08183).
T1 construct: host or cells: LLC-PK1 (porcine kidney epithelial cell line)
Put plainly: p-gp (P-glycoprotein) assay, bidirectional transcellular transport in LLC-PK1 and L-MDR1 cells. Particulars: presumably transport efflux ratio (ER). As for the experimental part:
p-gp (P-glycoprotein) Assay
Cell Lines and Vesicles Used for Transport Experiments
The LLC-PK1 cell line (ATCC #CL-101) is a porcine kidney epithelial cell line. The MDR1 (Human multidrug resistance protein 1) transfected cell lines were obtained from Dr. A. Schinkel, The Netherlands Cancer Institute (Amsterdam, The Netherlands). All cell lines were cultured on permeable inserts (Costar, 0.33 cm^2 area, pore size 3.0 μm, low density) at 4.5·10^5 cells/cm^2. Transport measurements were performed at day 4 after seeding. Tightness of the cell monolayer was controlled via the permeability of the extracellular marker lucifer yellow (10 μM). […]
The method used for transport experiments was reported Schwab et al. (see above.). […] Concentrations of substrate in both compartments were determined by scintillation counting (digoxin) or by LC-MS/MS. The extracellular marker (lucifer yellow) was quantified using a spectrafluor plus reader at 430/535 nm (Ex/Em). In each experiment 3 different inserts were used for each condition and a mean was calculated. […]
[formula] where Papp, A, C0, and dQ/dt represent the apparent permeability, the filter surface area, the initial concentration, and the amount transported per time period, respectively. Papp values were calculated on the basis of a single time point (2 h). Transport efflux ratios (ER) were calculated as follows: […]

A further data set deals with T2, CYP3A4 (Homo sapiens, UniProt P08684).
T2 construct: 0.2 mg/ml pooled human liver microsomes; from tissue; host or cells: pooled human liver microsomes
Description: CYP inhibition assay, human liver microsomes, midazolam 1′hydroxylase. Particulars: pooled human liver microsomes, read-out: CYP IC50 3A4. The method, then: (§1) Inhibition of cytochromes P450 (CYPs) 2C9, 2D6 and 3A4 was assessed using human liver microsomes and CYP-selective substrate metabolism reactions. 50 μl incubations were made up containing (finally) 0.2 mg/ml pooled human liver microsomes, 5 μM substrate (diclofenac for CYP2C9 [4′hydroxylase], dextromethorphan for CYP2D6 [O-demethylase] or midazolam for CYP3A4 [1′hydroxylase]), 0.25 μL DMSO containing test inhibitor and NADPH regenerating system. Test inhibitor concentrations of 50, 16.7, 5.6, 1.9, 0.6 and 0.2 μM were assessed in singlicate. Incubations were prewarmed to 37° C. for 10 minutes before initiation by addition of NADPH regenerating system. Incubations were quenched after 5 minutes (20 minutes for dextromethorphan) by addition of 50 μl cold acetonitrile containing 20 ng/ml 4-OH-diclofenac-13C6, 20 ng/mL dextrorphan-D3 and 20 ng/mL 1-OH-midazolam-D4. Quenched incubates were stored at −20° C. for at least 1 hour before centrifugation (20,000×g, 20 minutes). Supernatants were removed and diluted 1:1 with water prior to analysis using a RapidFire sample injector system and API4000 mass spectrometer. Peak areas for substrate, metabolite and stable-labelled metabolite standard were determined using MS/MS. The peak area ratios between the metabolite generated by the enzymatic reaction and the internal standard were used in subsequent calculations. The percentage of (DMSO) control activity was calculated for each incubate and IC50 values estimated by non-linear regression. Sulfaphenazole, quinidine or ketoconazole were tested in each CYP2C9, CYP2D6 or CYP3A4 inhibition experiment, respectively, to ensure assay sensitivity and reproducibility. (Validated assays for human cytochrome P450 activities, R. L. Walsky and R. S. Obach, Drug Metabolism and Disposition 32: 647-660, 2004. and S. Fowler and H. Zhang, The AAPS Journal, Vol. 10, No. 2, 410-424, 2008.)
For orientation: Liver microsomes are a subcellular fraction often used to study metabolism.

A further data set deals with T3, CYP2D6 (Homo sapiens, UniProt P10635).
T3 construct: 0.2 mg/ml pooled human liver microsomes; from tissue; host or cells: pooled human liver microsomes
Description: CYP inhibition assay, human liver microsomes, dextromethorphan O-demethylase. Particulars: pooled human liver microsomes, read-out: CYP IC50 2D6. The method, then: as §1

The next data set addresses T4, CYP2C9 (Homo sapiens, UniProt P11712).
T4 construct: 0.2 mg/ml pooled human liver microsomes; from tissue; host or cells: pooled human liver microsomes
Put plainly: CYP inhibition assay, human liver microsomes, diclofenac 4′hydroxylase. Particulars: pooled human liver microsomes, read-out: CYP IC50 2C9. As for the experimental part:
as §1

T4 sequence (P11712 whole entry): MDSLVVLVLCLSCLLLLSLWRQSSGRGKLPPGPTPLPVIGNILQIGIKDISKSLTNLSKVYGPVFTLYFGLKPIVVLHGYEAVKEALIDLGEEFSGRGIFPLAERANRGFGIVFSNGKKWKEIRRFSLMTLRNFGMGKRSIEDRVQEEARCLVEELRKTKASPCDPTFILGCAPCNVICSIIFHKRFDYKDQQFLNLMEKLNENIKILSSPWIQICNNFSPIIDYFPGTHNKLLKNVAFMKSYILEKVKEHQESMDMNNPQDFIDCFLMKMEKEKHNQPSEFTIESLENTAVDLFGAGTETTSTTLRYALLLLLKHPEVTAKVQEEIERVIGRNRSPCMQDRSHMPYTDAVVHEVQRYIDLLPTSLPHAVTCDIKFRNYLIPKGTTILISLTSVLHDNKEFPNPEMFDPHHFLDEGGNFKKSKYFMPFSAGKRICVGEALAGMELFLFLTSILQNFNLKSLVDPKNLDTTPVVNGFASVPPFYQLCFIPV
T2 sequence (P08684 whole entry): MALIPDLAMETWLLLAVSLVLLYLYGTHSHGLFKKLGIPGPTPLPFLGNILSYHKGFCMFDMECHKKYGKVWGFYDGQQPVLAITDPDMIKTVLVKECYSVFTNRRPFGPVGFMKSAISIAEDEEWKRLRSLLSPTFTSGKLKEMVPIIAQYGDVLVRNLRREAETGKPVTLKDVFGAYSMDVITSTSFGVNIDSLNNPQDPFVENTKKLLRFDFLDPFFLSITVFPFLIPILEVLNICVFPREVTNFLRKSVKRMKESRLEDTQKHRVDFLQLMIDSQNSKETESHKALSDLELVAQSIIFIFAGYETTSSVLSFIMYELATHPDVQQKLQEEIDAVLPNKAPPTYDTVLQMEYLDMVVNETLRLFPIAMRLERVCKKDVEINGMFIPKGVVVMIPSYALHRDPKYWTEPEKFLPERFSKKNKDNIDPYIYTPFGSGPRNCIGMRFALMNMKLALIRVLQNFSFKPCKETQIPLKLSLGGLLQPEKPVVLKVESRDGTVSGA
T1 sequence (P08183 whole entry): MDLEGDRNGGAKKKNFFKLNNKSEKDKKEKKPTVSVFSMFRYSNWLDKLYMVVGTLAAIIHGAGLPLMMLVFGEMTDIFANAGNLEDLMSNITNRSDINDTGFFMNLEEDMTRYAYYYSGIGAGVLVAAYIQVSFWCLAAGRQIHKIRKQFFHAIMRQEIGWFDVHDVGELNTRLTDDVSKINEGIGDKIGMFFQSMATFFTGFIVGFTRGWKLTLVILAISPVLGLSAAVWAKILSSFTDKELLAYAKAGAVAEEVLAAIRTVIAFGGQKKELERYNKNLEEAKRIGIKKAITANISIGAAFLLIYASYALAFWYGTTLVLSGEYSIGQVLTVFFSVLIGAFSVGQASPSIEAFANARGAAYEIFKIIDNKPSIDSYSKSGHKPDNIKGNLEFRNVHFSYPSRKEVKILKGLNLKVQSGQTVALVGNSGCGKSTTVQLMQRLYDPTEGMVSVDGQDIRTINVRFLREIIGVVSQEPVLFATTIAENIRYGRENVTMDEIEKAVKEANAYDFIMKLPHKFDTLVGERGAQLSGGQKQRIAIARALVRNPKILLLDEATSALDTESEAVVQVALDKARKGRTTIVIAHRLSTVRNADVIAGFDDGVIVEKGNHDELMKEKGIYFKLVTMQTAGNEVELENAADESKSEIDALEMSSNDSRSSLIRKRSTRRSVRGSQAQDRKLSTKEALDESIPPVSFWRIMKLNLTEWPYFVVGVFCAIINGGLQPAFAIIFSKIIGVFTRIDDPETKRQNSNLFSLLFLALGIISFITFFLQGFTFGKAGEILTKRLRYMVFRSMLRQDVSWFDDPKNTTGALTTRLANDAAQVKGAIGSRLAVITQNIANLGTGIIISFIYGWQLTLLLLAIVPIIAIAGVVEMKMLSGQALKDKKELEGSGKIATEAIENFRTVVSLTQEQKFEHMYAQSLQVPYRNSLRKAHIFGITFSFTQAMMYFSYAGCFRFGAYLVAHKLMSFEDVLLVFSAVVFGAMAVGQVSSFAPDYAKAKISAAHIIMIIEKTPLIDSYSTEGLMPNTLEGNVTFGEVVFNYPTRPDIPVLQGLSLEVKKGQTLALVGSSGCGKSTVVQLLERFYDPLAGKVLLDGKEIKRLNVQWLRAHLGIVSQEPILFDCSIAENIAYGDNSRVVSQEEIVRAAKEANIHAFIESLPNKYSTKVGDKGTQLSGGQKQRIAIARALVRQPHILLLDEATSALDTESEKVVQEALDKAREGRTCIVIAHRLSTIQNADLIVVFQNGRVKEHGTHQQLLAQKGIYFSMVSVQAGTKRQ
T3 sequence (P10635 whole entry): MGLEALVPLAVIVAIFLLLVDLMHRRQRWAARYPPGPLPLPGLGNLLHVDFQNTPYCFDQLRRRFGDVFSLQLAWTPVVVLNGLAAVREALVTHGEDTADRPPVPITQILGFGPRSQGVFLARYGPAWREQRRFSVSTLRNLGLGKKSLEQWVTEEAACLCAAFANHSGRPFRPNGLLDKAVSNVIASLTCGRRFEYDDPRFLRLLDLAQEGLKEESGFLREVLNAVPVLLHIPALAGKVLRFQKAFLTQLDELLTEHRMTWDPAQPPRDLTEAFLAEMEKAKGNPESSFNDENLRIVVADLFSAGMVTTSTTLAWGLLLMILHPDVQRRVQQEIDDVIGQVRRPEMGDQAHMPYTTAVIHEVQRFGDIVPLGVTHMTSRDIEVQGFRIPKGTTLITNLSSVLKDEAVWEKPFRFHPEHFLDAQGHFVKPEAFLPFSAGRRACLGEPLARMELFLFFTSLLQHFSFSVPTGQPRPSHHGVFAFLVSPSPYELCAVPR

`CC1(c2cccc(-c3cc(Cl)cc(Cl)c3)c2)COCC(N)=N1` (centres unmarked) [Example 32, 5-(3′,5′-Dichloro-biphenyl-3-yl)-5-methyl-5,6-dihydro-2H-[1,4]oxazin-3-ylamine]: the efflux ratio at 2 h at P-gp (human MDR1) came out at 1.1. Further, the IC50 on CYP3A4 was over 50 µM; at CYP2D6, over 50 µM; at CYP2C9, 3.7 µM.
With `CC1(c2cc(-c3cncnc3)ccc2F)COCC(N)=N1` (centres unmarked) [Example 36, 5-(2-Fluoro-5-pyrimidin-5-yl-phenyl)-5-methyl-5,6-dihydro-2H-[1,4]oxazin-3-ylamine], the efflux ratio at 2 h at P-gp (human MDR1) came out at 11. Further, the IC50 is over 50 µM at CYP3A4, 41 µM on CYP2D6 and over 50 µM at CYP2C9.
